Assay results reported in publication PMC7251097, “Aspartate/asparagine-β-hydroxylase: a high-throughput mass spectrometric assay for discovery of small molecule inhibitors” (Scientific Reports, 2020).
Where a name gives a salt, the structure may show the parent alone. Read-outs that look alike come from different tables or passages of the source. One block for each compound: values may come before it. Residues, ends and D or L forms follow the SMILES beside them. *: point of attachment. Cbz = O=C(OCc1ccccc1)*

Target: T1, His6-AspH315–758 (human aspartate/asparagine-β-hydroxylase, AspH) (Homo sapiens, UniProt Q12797)
T1 construct: N-Terminally His6-tagged human AspH315–758 (His6-AspH315–758) was produced in E. coli BL21 (DE3) cells; made in house; host or cells: E. coli BL21 (DE3), pET-28a(+) vector
T1 sequence (Q12797 315-758): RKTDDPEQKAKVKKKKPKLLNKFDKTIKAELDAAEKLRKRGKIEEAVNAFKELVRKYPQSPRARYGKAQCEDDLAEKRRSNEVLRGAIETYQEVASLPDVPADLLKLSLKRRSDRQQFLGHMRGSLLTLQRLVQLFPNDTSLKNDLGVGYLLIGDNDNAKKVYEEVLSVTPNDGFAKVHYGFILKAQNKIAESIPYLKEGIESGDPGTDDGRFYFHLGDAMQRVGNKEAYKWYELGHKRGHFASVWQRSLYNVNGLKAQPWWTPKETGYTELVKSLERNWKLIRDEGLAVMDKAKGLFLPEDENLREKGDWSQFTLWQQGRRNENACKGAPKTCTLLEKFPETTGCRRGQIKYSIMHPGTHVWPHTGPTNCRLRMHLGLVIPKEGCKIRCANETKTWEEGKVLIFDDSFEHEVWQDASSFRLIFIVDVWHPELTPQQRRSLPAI
Assay: SPE-MS AspH inhibition assay (LOPAC screen at fixed 20 μM and IC50 dose-response), hydroxylation of cyclic peptide hFX-CP101–119
Assay type: biochemical

[1] = LOPAC compound at fixed 20 uM, plate 1, normalised to DMSO and 2,4-PDCA controls
[2] = LOPAC compound at fixed 20 uM, substrate conversion, plate 1
[3] = LOPAC compound at 20uM, plate 3, conversion of substrate peptide
[4] = plate 5 (Pfitzer), test compounds at fixed 20 μM
[5] = plate 5 (Pfitzer), test compounds at fixed 20 μM, mean conversion DMSO 32.88
[6] = LOPAC Plate 4, compound at 20 uM, substrate conversion
[7] = LOPAC compound at 20uM, plate 2, conversion of substrate peptide
[8] = LOPAC compound at 20uM, plate 2, normalised to DMSO and 2,4-PDCA controls, read-out: Plate 2 (% inhibition)
[9] = LOPAC Plate 4, compound at 20 uM
[10] = LOPAC compound at 20uM, plate 2, normalised to DMSO and 2,4-PDCA controls
[11] = read-out: Plate 2 (% inhibition)
[12] = LOPAC Plate 4, compound at 20 uM, read-out: % inhibition

Compound: C=CC[N+](C)(C)c1ccc(CCC(=O)CCc2ccc([N+](C)(C)CC=C)cc2)cc1.[Br-].[Br-] [BW 284c51]
Plate 1 (% conversion): 38.38%
Plate 1 (% inhibition): -7.47%

Compound: CCCCCCCCCCCCCCCCCCc1ccc(C(=O)/C=C/C(=O)O)cc1 [OBAA]
Plate 1 (% inhibition) [1]: -7.39%
Plate 1 (% conversion) [2]: 38.35%

Compound: O=c1ccc2[nH]cc(C3=CCNCC3)c2[nH]1 [CP-93129]
Plate 5 (% conversion): 38.32%
Plate 5 (% inhibition): -5.90%

Compound: O=C(O)/C=C\C(=O)O.O=[N+]([O-])c1ccc2nc(N3CCNCC3)ccc2c1 [Quipazine, 6-nitro-, maleate]
% conversion [6]: 31.15%

Compound: NCC(CP(=O)(O)O)c1ccc(Cl)cc1 (centres unmarked) [Phaclofen]
% conversion: 34.58%
% inhibition (20 µM): 5.54%

Compound: CNC(=O)c1ccccc1Sc1ccc2c(/C=C/c3ccccn3)n[nH]c2c1 [Axitinib]
Plate 5 (% inhibition) [4]: -7.77%
Plate 5 (% conversion) [5]: 38.96%

Compound: C#C[C@]1(O)CC[C@H]2[C@@H]3CCC4=Cc5oncc5C[C@]4(C)[C@H]3CC[C@@]21C [Danazol]
Plate 2 (% conversion) [7]: 39.67%
inhibition at 20 µM [8]: -11.1%

Compound: COc1ccc2c(c1)c(CC(=O)O)c(C)n2Cc1ccc(Cl)cc1
Plate 1 (% inhibition) [1]: 5.27%
Plate 1 (% conversion) [2]: 34.10%

Compound: O=C(Nc1ccncc1)c1cc([N+](=O)[O-])ccc1Cl [T0070907]
Plate 3 (% conversion) [3]: 31.53%

Compound: Maraviroc
Plate 1 (% conversion): 50.71%
Plate 1 (% inhibition): -44.18%
Plate 5 (% conversion): 49.04%
Plate 5 (% inhibition): -37.39%

Compound: COc1ccc(C(CN(C)C)C2(O)CCCCC2)cc1 (centres unmarked) [Venlafaxine hydrochloride]
Plate 2 (% conversion): 36.45%
inhibition at 20 µM [11]: -1.48%

Compound: CC/C(=C(\c1ccccc1)c1ccc(OCCN(C)C)cc1)c1ccccc1 [Tamoxifen citrate]
% conversion [6]: 11.73%
inhibition at 20 µM [12]: 72.5%

Compound: Cc1cnc(NC(=O)C2=C(O)c3ccccc3S(=O)(=O)N2C)s1 [Meloxicam sodium]
Plate 3 (% conversion) [3]: 33.11%

Compound: Br.CCCN(CCC)C1CCc2ccc(O)cc2C1 (racemic) [(±)-7-Hydroxy-DPAT hydrobromide]
Plate 2 (% conversion) [7]: 37.82%
Plate 2 (% inhibition) [10]: -5.57%

Compound: CCCCC[C@H](CC(=O)NO)C(=O)N[C@H](C(=O)N1CCC[C@H]1CO)C(C)C [Actinonin]
Plate 1 (% inhibition) [1]: -5.32%
Plate 1 (% conversion) [2]: 37.66%

Compound: COc1cc(Nc2c(C#N)cnc3cc(OCCCN4CCN(C)CC4)c(OC)cc23)c(Cl)cc1Cl [Bosutinib]
Plate 1 (% inhibition) [1]: -79.17%
Plate 1 (% conversion) [2]: 62.46%
Plate 5 (% inhibition) [4]: -77.35%
Plate 5 (% conversion) [5]: 62.64%

Compound: CCCCCCCCCC[Si](C)(C)CCC(=O)NC(Cc1ccc(C)cc1)c1ccccc1 (centres unmarked) [Sandoz 58-035]
Plate 1 (% conversion): 37.15%
Plate 1 (% inhibition): -3.81%

Compound: (±)-Butaclamol hydrochloride
Plate 1 (% inhibition) [1]: -27.23%
Plate 1 (% conversion) [2]: 45.02%

Compound: CC(C)(C)NCC(O)c1cc(O)cc(O)c1.CC(C)(C)NCC(O)c1cc(O)cc(O)c1.O=S(=O)(O)O (centres unmarked) [Terbutaline hemisulfate]
% inhibition [9]: 5.48%
% conversion [6]: 34.60%

Compound: O=S(=O)(N[C@H](CO)C(C(F)(F)F)C(F)(F)F)c1ccc(Cl)s1 [GSI-953]
Plate 5 (% inhibition) [4]: 5.55%
Plate 5 (% conversion) [5]: 34.43%

Compound: Brc1c(Br)c(Br)c2[nH]cnc2c1Br [TBBz]
Plate 1 (% conversion): 32.96%
Plate 1 (% inhibition): 8.67%

Compound: CC1(C(=O)O)C2CCC(O2)C1(C)C(=O)O (centres unmarked) [Cantharidic Acid]
Plate 1 (% conversion): 25.92%
Plate 1 (% inhibition): 29.65%

Compound: CCS(=O)(=O)Nc1cccc(C(=C2CCCCC2)c2cnc[nH]2)c1 [A-315456]
Plate 1 (% conversion): 40.98%
Plate 1 (% inhibition): -15.20%

Compound: CC[C@@H](C(N)=O)N1CCCC1=O [Levetiracetam]
Plate 3 (% conversion): 34.85%

Compound: CCCN(CCC)CCc1ccc(O)c(O)c1 [Dipropyldopamine hydrobromide]
Plate 2 (% conversion): 10.27%
inhibition at 20 µM [11]: 76.7%

Compound: C/C=C(/C)C(=O)O[C@H]1C(C)=C2[C@H]([C@@H]1OC(=O)CCCCCCC)[C@@](C)(OC(C)=O)C[C@H](OC(=O)CCC)[C@@]1(O)[C@H]2OC(=O)[C@@]1(C)O [Thapsigargin]
% conversion: 31.20%

Compound: COC(=O)C1=CCCN(C)C1 [Arecoline hydrobromide]
Plate 1 (% conversion): 37.04%
Plate 1 (% inhibition): -3.47%

Compound: CCN(CC)CCOc1ccc(Nc2ncc3cc(-c4c(Cl)cccc4Cl)c(=O)n(C)c3n2)cc1 [PD-166285]
Plate 5 (% inhibition) [4]: -31.63%
Plate 5 (% conversion) [5]: 47.08%

Compound: Cl.N=C(N)c1ccc(CS(=O)(=O)F)cc1
Plate 3 (% conversion): 34.27%

Compound: CCCCNc1ccc(C(=O)OCCN(C)C)cc1 [Tetracaine hydrochloride]
% conversion [6]: 40.45%
inhibition at 20 µM [12]: -11.7%

Compound: CN1CCN(C2Cc3ccccc3Sc3ccc(Cl)cc32)CC1.O=C(O)/C=C\C(=O)O (racemic) [(±)-Octoclothepin maleate]
Plate 3 (% conversion): 45.22%

Compound: Nc1ncnc2c1ncn2[C@@H]1O[C@H](COP(=O)(O)CP(=O)(O)OP(=O)([O-])[O-])[C@@H](O)[C@H]1O.[Li+].[Li+]
Plate 3 (% conversion) [3]: 17.86%

Compound: CC[N+](C)(C)c1cccc(O)c1 [Edrophonium chloride]
Plate 2 (% conversion): 37.54%
inhibition at 20 µM [11]: -4.75%

Compound: CC(C)[C@H](NC(=O)OCc1ccccc1)C(=O)N[C@H](C=O)Cc1ccccc1 [MDL 28170] (Cbz-Val-Phe-aldehyde)
Plate 3 (% conversion) [3]: 33.83%

Further lines, results first:

Plate 1 (% inhibition) [1]: -13.45%
Plate 1 (% conversion) [2]: 40.39%
Compound: CC[C@H]1OC(=O)[C@H](C)[C@@H](O[C@H]2C[C@@](C)(OC)[C@@H](O)[C@H](C)O2)[C@H](C)[C@@H](O[C@@H]2O[C@H](C)C[C@H](N(C)C)[C@H]2O)[C@](C)(O)C[C@@H](C)CN(C)[C@H](C)[C@@H](O)[C@]1(C)O [Azithromycin dihydrate]

Plate 3 (% conversion) [3]: 29.75%
Compound: CCCCCc1ccc(/C=C/C(=O)Nc2cc(Cl)ccc2C(=O)O)cc1 [ONO-RS-082]

Plate 5 (% inhibition) [4]: 37.56%
Plate 5 (% conversion) [5]: 23.53%
Compound: N#C/C(=C\c1cn(-c2ccccc2)c2ccccc12)C(=O)O [UK-5099]

% conversion [6]: 43.98%
Compound: CSc1ccc2c(c1)N(CCC1CCCCN1C)c1ccccc1S2 (centres unmarked) [Thioridazine hydrochloride]

% inhibition [9]: -3.63%
% conversion [6]: 37.71%
Compound: C[N+]1(C)CCC(OC(=O)C(c2ccccc2)c2ccccc2)CC1.[I-] [4-DAMP]

Plate 2 (% conversion) [7]: 34.67%
inhibition at 20 µM [8]: 3.85%
Compound: N=C(N)N/N=C/c1c(Cl)cccc1Cl [Guanabenz acetate]

Plate 2 (% conversion) [7]: 36.89%
Plate 2 (% inhibition) [10]: -2.79%
Compound: COc1cc2c(CCNC(C)=O)c[nH]c2cc1O [6-Hydroxymelatonin]

% inhibition [9]: -13.60%
% conversion [6]: 41.11%
Compound: Ro 8-4304

Plate 3 (% conversion) [3]: 41.59%
Compound: COc1cc2c(cc1O)CC[C@@H]1[C@@H]2CC[C@]2(C)[C@@H](O)CC[C@@H]12 [2-methoxyestradiol]

% conversion [6]: 27.02%
Compound: CC(=O)Oc1cc(C(F)(F)F)ccc1C(=O)O [Triflusal]

% conversion [6]: 29.23%
Compound: O=c1c2ccccc2nc2n1CCc1c-2[nH]c2ccccc12 [Rutaecarpine]

Plate 2 (% conversion) [7]: 35.22%
Plate 2 (% inhibition) [10]: 2.19%
Compound: CCN(CC)C(=O)c1ccc(O)c(OC)c1 [Vanillic acid diethylamide]

Plate 3 (% conversion) [3]: 39.66%
Compound: c1ccc2c(c1)OCC(C1=NCCN1)O2 (centres unmarked) [Idazoxan hydrochloride]

% inhibition [9]: 78.36%
% conversion [6]: 9.73%
Compound: Cl.NC[C@@H]1O[C@H](c2ccccc2)Cc2c1ccc(O)c2O [A-68930 hydrochloride]

IC50 [μM] (50 nM His6-AspH315–758, 1.0 μM hFX-CP101–119, 3 μM 2OG, 2 μM Fe(II), 50 mM HEPES pH 7.5, 20 °C, mean ± SD, n = 2 (2,4-PDCA n = 10)): inactive
Compound: CCOC(=O)CCNc1cc(N2CCc3ccccc3CC2)nc(-c2ccccn2)n1 [GSK-J4, reference compound]

Plate 2 (% conversion) [7]: 35.57%
inhibition at 20 µM [8]: 1.14%
Compound: Nc1nc(O)c2ncn(COC(CO)CO)c2n1 [Ganciclovir]

Plate 1 (% inhibition) [1]: 14.49%
Compound: CC1=C(C(=O)O)N2C(=O)[C@@H](NC(=O)[C@H](N)c3ccccc3)[C@H]2SC1.O [Cephalexin hydrate]

Plate 1 (% inhibition) [1]: -13.88%
Plate 1 (% conversion) [2]: 40.53%
Compound: CN(C)CC[C@@H](c1ccc(Cl)cc1)c1ccccn1 [(+)-Chlorpheniramine maleate]

Plate 1 (% inhibition) [1]: -6.36%
Plate 1 (% conversion) [2]: 38.01%
Compound: C[C@]12C[C@H](O)[C@H]3[C@@H](CCC4=CC(=O)CC[C@@]43C)[C@@H]1CC[C@@H]2C(=O)CO [Corticosterone]

Plate 5 (% inhibition) [4]: 75.86%
Plate 5 (% conversion) [5]: 10.50%
Compound: c1cnc2cc3c(cc2n1)[C@@H]1CNC[C@H]3C1 [Varenicline]
